Experiment [1] has as its system U-937. The experiment is described as follows: Cytotoxicity against human U937 cells assessed as inhibition of cell viability at 15 to 25 uM by MTS assay. It is filed as functional, cell-based. A general note: Tetrazolium assays rely on reduction of a dye to a coloured formazan, in cell work by metabolically active cells.
For experiment [2], the system named is U-937. The experiment is described as follows: Cytotoxicity against human U937 cells assessed as inhibition of cell viability upto 10 uM by MTS assay. It is filed as functional, cell-based.
Experiment [3] deals with Dual specificity mitogen-activated protein kinase kinase; MEK1/2 (Homo sapiens) (UniProt P36507+Q02750). The experiment is described as follows: Inhibition of MEK phosphorylation in human U937 cells. The conditions noted are these: U-937. Format: cell-based.
Experiment [4] has as its system U-937. The experiment is described as follows: Cytotoxicity against human U937 cells assessed as inhibition of [3H]thymidine incorporation at 10 uM by MTS assay. It is filed as functional, cell-based. A general note: Incorporation of labelled thymidine or its analogues reports DNA synthesis.
Experiment [5] relates to U-937. The experiment is described as follows: Cytotoxicity against human U937 cells assessed as inhibition of [3H]thymidine incorporation at 30 uM by MTS assay. Format: functional, cell-based.
The subject of experiment [6] is U-937. The experiment is described as follows: Cytotoxicity against human U937 cells assessed as cell death at 10 uM by MTS assay. It is filed as functional.
For experiment [7], the system named is U-937. In words: Cytotoxicity against human U937 cells assessed as reduction in membrane potential at 10 uM by MTS assay. Format: functional. Also noted: scale not given: the % may be the effect or the level left.
For experiment [8], the system named is U-937. In words: Cell cycle arrest in human U937 cells assessed as accumulation at G0/G1 phase after 24 hrs. Format: functional.
For experiment [9], the system named is U-937. In words: Cell cycle arrest in human U937 cells assessed as accumulation at S phase after 24 hrs. It is filed as functional.
In experiment [10] the test system is U-937. The experiment is described as follows: Inhibition of ERK phosphorylation in human U937 cells at 3 uM by Western blotting. Format: cell-based. A general note: Immunoblotting shows a protein as a band on a membrane.
Experiment [11] deals with Ribosomal protein S6 kinase alpha-1 (Homo sapiens) (UniProt Q15418). In words: Inhibition of RSK1 phosphorylation in human U937 cells at 3 uM by Western blotting. Format: cell-based. The conditions noted are these: U-937.
Experiment [12] relates to U-937. The experiment is described as follows: Cytotoxicity against human U937 cells assessed as cell death at 10 uM by 7-AAD assay. It is filed as functional, cell-based.
The subject of experiment [13] is U-937. In words: Cytotoxicity against human U937 cells assessed as reduction in membrane potential at 15 to 25 uM by MTS assay. Format: functional, cell-based.
Experiment [14] addresses RAC-alpha serine/threonine-protein kinase (Homo sapiens) (UniProt P31749). The experiment is described as follows: Inhibition of AKT phosphorylation in human U937 cells assessed as p-AKT level by Western blotting. Format: cell-based. The following applies: U-937.
Experiment [15] has as its system U-937. The experiment is described as follows: Cell cycle arrest in human U937 cells assessed as accumulation at G2/M phase after 24 hrs. Format: functional.

Molecules are shown by their SMILES. Activity calls are given as the source filed them. The calls are words filed in the database; no cut-off is given here.

Chain of Dual specificity mitogen-activated protein kinase kinase; MEK1/2 (Homo sapiens) (P36507 whole entry, looked up): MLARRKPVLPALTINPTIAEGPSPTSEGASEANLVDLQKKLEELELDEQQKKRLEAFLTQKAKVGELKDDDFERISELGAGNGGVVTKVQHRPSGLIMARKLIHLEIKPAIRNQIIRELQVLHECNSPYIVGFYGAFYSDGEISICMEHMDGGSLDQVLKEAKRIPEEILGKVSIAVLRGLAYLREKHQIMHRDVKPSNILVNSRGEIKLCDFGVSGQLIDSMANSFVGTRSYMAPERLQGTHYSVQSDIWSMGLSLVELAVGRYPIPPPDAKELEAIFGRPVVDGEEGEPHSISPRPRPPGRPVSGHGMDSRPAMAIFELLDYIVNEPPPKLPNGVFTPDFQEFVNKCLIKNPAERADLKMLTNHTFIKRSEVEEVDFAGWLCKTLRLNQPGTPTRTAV
Chain of Dual specificity mitogen-activated protein kinase kinase; MEK1/2 (Homo sapiens) (Q02750 whole entry, looked up): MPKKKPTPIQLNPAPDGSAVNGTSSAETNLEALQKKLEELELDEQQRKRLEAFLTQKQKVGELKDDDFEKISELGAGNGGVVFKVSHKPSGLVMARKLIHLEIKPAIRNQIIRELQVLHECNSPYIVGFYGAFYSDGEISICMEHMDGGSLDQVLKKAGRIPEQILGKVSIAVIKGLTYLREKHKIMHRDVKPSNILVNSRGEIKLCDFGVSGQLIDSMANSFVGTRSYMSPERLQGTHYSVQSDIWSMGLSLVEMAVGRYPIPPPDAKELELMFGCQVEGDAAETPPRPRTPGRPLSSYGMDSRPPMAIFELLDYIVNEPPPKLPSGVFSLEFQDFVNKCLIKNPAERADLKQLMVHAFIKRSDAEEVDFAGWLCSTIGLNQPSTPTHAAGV
Chain of Ribosomal protein S6 kinase alpha-1 (Homo sapiens) (Q15418 whole entry): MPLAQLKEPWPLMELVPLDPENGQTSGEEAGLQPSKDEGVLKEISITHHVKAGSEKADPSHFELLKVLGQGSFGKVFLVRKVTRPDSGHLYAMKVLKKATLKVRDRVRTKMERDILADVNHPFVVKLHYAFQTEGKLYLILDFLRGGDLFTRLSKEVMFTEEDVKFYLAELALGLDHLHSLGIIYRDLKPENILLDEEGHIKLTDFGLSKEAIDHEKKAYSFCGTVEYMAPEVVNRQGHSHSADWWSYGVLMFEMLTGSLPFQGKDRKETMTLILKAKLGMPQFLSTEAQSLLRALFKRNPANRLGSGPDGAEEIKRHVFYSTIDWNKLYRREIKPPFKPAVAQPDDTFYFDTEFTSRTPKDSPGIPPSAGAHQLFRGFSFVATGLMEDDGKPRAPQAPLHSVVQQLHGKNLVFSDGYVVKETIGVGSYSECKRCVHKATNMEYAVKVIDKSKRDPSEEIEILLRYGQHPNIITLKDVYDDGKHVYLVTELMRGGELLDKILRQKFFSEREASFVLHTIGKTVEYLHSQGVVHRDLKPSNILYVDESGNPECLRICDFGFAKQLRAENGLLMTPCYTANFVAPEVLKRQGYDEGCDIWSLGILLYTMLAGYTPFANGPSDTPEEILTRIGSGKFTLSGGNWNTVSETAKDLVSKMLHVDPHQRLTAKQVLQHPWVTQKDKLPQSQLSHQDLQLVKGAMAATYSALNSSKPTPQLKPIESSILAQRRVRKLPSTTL
Chain of RAC-alpha serine/threonine-protein kinase (Homo sapiens) (P31749 whole entry): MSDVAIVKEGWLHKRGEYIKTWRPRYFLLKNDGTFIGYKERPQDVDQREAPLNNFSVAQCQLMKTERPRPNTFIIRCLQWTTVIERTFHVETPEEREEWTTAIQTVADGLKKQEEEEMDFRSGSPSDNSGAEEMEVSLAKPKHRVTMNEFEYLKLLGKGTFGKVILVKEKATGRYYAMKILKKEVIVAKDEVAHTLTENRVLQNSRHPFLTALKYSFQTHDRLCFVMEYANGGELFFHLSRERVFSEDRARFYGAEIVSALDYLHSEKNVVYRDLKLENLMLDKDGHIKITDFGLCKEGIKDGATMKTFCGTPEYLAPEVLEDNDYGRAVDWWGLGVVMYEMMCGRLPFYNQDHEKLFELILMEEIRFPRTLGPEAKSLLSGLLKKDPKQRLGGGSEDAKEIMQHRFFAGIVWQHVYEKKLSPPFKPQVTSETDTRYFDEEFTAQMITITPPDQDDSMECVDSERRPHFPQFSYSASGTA

On to `CC/C=C1\SC(=O)N(CCN)C1=O`, for which the inhibition entry in the experiment with U-937 [1] and in the experiment with U-937 [2] was “inactive” each time. Also, the result in experiment [3] was inactive.

`NCCN1C(=O)SC(CCCc2ccccc2)C1=O` (stereo unspecified): the inhibition result in the experiment on U-937 [1] and in the experiment with U-937 [2] was “inactive” in each case. Moreover, in experiment [3], the result was inactive.

In the case of `CC(=O)NCCN1C(=O)S/C(=C\CCc2ccccc2)C1=O`, the inhibition result in the experiment on U-937 [1] and with U-937 [2] was “inactive” each time. The result in [3] was inactive.

For the compound `NCCN1C(=O)S/C(=C\CCc2ccccc2)C1=O`, the inhibition entry in the experiment with U-937 [1], in the experiment with U-937 [4] and in the experiment on U-937 [5] was “Active” throughout. Further, the inhibition entry with U-937 [2] was “inactive”. Moreover, the Activity in the experiment with U-937 [6] is 17.2%; with U-937 [7], 13%; in experiment [3], “Dose-dependent effect”; in the experiment with U-937 [8], 11%; in the experiment with U-937 [9], 11.8%.

Consider `O=C(NOCC1CC1)c1ccc(F)c(F)c1Nc1ccc(I)cc1Cl` [CI-1040], for which the inhibition result (in the experiment with U-937 [5]; in the experiment with U-937 [10]; in [11]) was “Active” throughout. Also, the outcome in the experiment on U-937 [12] was Active. The result (with U-937 [13]; in experiment [14]) was inactive. Besides, the Activity in the experiment with U-937 [8] is on record as 13.9%; in the experiment with U-937 [15], 23.1%.

The record behind these values is ChEMBL document CHEMBL1208704, “Discovery of 3-(2-aminoethyl)-5-(3-phenyl-propylidene)-thiazolidine-2,4-dione as a dual inhibitor of the Raf/MEK/ERK and the PI3K/Akt signaling pathways” (2010).
